From patent publication US20260242391A1 (priority 2023, published 2026)

Assays:
HL-60 = HL-60 differentiation potency; assay type: cell-based; conditions: Homo sapiens
in vitro = conditions: human

EC50 (HL-60) [nM]	IC50 (in vitro) [nM]	Compound
23.5	40	C[C@H]1[C@@H](Oc2ccc(-c3ccc(C(=O)O)cc3)cc2)O[C@@H]2O[C@@]3(C)CC[C@H]4[C@H](C)CC[C@@H]1[C@@]24OO3 [Compound 107, 4′-(((3R,5aS,6R,8aS, 9R,10S,12R, 12aR)-3,6,9-trimethyldeca-hydro-12H-3,12-epoxy[1,2]dioxepino[4,3-i]isochromen-10-yl)oxy)-[1,1′-biphenyl]-4-carboxylic acid]
97.3	540	C[C@H]1[C@@H](OC[C@H]2CC[C@@H](C(=O)NC(C)(C)C)CC2)O[C@@H]2O[C@@]3(C)CC[C@H]4[C@H](C)CC[C@@H]1[C@@]24OO3 [Compound 153, (1R,4s)-N-(tert-butyl)-4-((((3R,5aS,6R,8aS, 9R,10S,12R, 12aR)-3,6,9-trimethyldeca-hydro-12H-3,12-epoxy[1,2]dioxepino[4,3-i]isochromen-10-yl)oxy)methyl) cyclohexane-1-carboxamide]
333	> 20000	C[C@H]1[C@@H](OCc2ccc(C(=O)O)o2)O[C@@H]2O[C@@]3(C)CC[C@H]4[C@H](C)CC[C@@H]1[C@@]24OO3 [Compound 32, 5-((((3R,5aS,6R, 8aS,9R,10S,12R, 12aR)-3,6,9-trimethyldeca-hydro-12H-3,12-epoxy[1,2]dioxepino[4,3-i]isochromen-10-yl)oxy)methyl) furan-2-carboxylic acid]
797	> 20000	C[C@H]1[C@@H](OC2C[C@H]3CC(C(=O)O)C[C@@H]23)O[C@@H]2O[C@@]3(C)CC[C@H]4[C@H](C)CC[C@@H]1[C@@]24OO3 (stereo partly drawn) [Compound 157, (1R,5R)-6-(((3R,5aS,6R,8aS, 9R,10S,12R, 12aR)-3,6,9-trimethyldeca-hydro-12H-3,12-epoxy[1,2]dioxepino[4,3-i]isochromen-10-yl)oxy)bicyclo [3.2.0]heptane-3-carboxylic acid]
66.9	1800	C[C@H]1[C@H](OCC#Cc2ccc(C(=O)O)cc2F)O[C@@H]2O[C@@]3(C)CC[C@H]4[C@H](C)CC[C@@H]1[C@@]24OO3 [Compound 166, 3-fluoro-4-(3-(((3R,5aS,6R,8aS, 9R,10R,12R, 12aR)-3,6,9-trimethyldeca-hydro-12H-3,12-epoxy[1,2]dioxepino[4,3-i]isochromen-10-yl)oxy)prop-1-yn-1-yl)benzoic acid]
283	> 20000	C[C@H]1[C@@H](OCc2cc(F)c(C(=O)O)c(F)c2)O[C@@H]2O[C@@]3(C)CC[C@H]4[C@H](C)CC[C@@H]1[C@@]24OO3 [Compound 29, 2,6-difluoro-4-((((3R,5aS,6R, 8aS,9R,10S,12R, 12aR)-3,6,9-trimethyldeca-hydro-12H-3,12-epoxy[1,2]dioxepino[4,3-i]isochromen-10-yl)oxy)methyl) benzoic acid]
123	> 20000	C[C@H]1[C@H](OCCCc2ccc(C(=O)O)cc2)O[C@@H]2O[C@@]3(C)CC[C@H]4[C@H](C)CC[C@@H]1[C@@]24OO3 [Compound 21, 4-(3-(((3R,5aS,6R,8aS, 9R,10R,12R, 12aR)-3,6,9-trimethyldeca-hydro-12H-3,12-epoxy[1,2]dioxepino[4,3-i]isochromen-10-yl)oxy)propyl) benzoic acid]
1240	> 20000	C[C@H]1[C@@H](Oc2ccc(C(=O)N3CC(C(=O)O)C3)cc2)O[C@@H]2O[C@@]3(C)CC[C@H]4[C@H](C)CC[C@@H]1[C@@]24OO3 [Compound 149, 1-(4-(((3R,5aS,6R,8aS, 9R,10S,12R, 12aR)-3,6,9-trimethyldeca-hydro-12H-3,12-epoxy[1,2]dioxepino[4,3-i]isochromen-10-yl)oxy)benzoyl) azetidine-3-carboxylic acid]
> 20000	> 20000	C[C@H]1[C@H](NCc2ccncc2)O[C@@H]2O[C@@]3(C)CC[C@H]4[C@H](C)CC[C@@H]1[C@@]24OO3 [Compound 98, (3R,5aS,6R,8aS, 9R,10R,12R, 12aR)-3,6,9-trimethyl-N-(pyridin-4-ylmethyl)deca-hydro-12H-3,12-epoxy[1,2] dioxepino[4,3-i] isochromen-10-amine]
3350	14400	C[C@H]1[C@@H](OC[C@H]2CC[C@@H](C(=O)O)N2C)O[C@@H]2O[C@@]3(C)CC[C@H]4[C@H](C)CC[C@@H]1[C@@]24OO3 [Compound 144, (2S,5R)-1-methyl-5-((((3R,5aS,6R,8aS, 9R,10S,12R, 12aR)-3,6,9-trimethyldeca-hydro-12H-3,12-epoxy[1,2]dioxepino[4,3-i]isochromen-10-yl)oxy)methyl) pyrrolidine-2-carboxylic acid]
835	1320	C[C@H]1[C@H](NCc2ccccc2)O[C@@H]2O[C@@]3(C)CC[C@H]4[C@H](C)CC[C@@H]1[C@@]24OO3 [Compound 101, (3R,5aS,6R,8aS, 9R,10R,12R, 12aR)-N-benzyl-3,6,9-trimethyldeca-hydro-12H-3,12-epoxy[1,2] dioxepino[4,3-i] isochromen-10-amine]
9120	8340	C[C@H]1[C@H](NCc2ccc(S(C)(=O)=O)cc2)O[C@@H]2O[C@@]3(C)CC[C@H]4[C@H](C)CC[C@@H]1[C@@]24OO3 [Compound 58, (3R,5aS,6R,8aS, 9R,10R,12R, 12aR)-3,6,9-trimethyl-N-(4-(methylsulfonyl)benzyl) decahydro-12H-3,12-epoxy[1,2] dioxepino[4,3-i] isochromen-10-amine]
104	138	C[C@H]1[C@@H](OCc2ccc(C#N)cc2)O[C@@H]2O[C@@]3(C)CC[C@H]4[C@H](C)CC[C@@H]1[C@@]24OO3 [Compound 19, 4-((((3R,5aS,6R, 8aS,9R,10S,12R, 12aR)-3,6,9-trimethyldeca-hydro-12H-3,12-epoxy[1,2]dioxepino[4,3-i]isochromen-10-yl)oxy)methyl) benzonitrile]
1570	> 20000	C[C@H]1[C@@H](OCC(=O)N2C[C@H]3[C@@H]([C@H]2C(=O)O)C3(C)C)O[C@@H]2O[C@@]3(C)CC[C@H]4[C@H](C)CC[C@@H]1[C@@]24OO3 [Compound 151, (1R,2S,5S)-6,6-dimethyl-3-(2-(((3R,5aS,6R,8aS, 9R,10S,12R, 12aR)-3,6,9-trimethyldeca-hydro-12H-3,12-epoxy[1,2]dioxepino[4,3-i]isochromen-10-yl)oxy)acetyl)-3-azabicyclo[3.1.0] hexane-2-carboxylic acid]
113	777	C[C@H]1[C@@H](Oc2ccc(CCCCC(=O)O)cc2)O[C@@H]2O[C@@]3(C)CC[C@H]4[C@H](C)CC[C@@H]1[C@@]24OO3 [Compound 72, 5-(4-(((3R,5aS, 6R,8aS,9R,10S, 12R,12aR)-3,6,9-trimethyldeca-hydro-12H-3,12-epoxy[1,2]dioxepino[4,3-i]isochromen-10-yl)oxy)phenyl) pentanoic acid]
1010	> 20000	Cc1cc(C(=O)O)ccc1CO[C@@H]1O[C@@H]2O[C@@]3(C)CC[C@H]4[C@H](C)CC[C@@H]([C@H]1C)[C@@]24OO3 [Compound 44, 3-methyl-4-((((3R,5aS,6R,8aS, 9R,10R,12R, 12aR)-3,6,9-trimethyldeca-hydro-12H-3,12-epoxy[1,2]dioxepino[4,3-i]isochromen-10-yl)oxy)methyl) benzoic acid]
